Measurements published in the CheMixHub viscosity set.

Assay: xn = mol fraction of the nth substance listed

Cc1ccccc1C + O=C1CCCO1
viscosity [mPa·s], 101.33 kPa
Conditions	x2 = 0.1199	x2 = 0.1801	x2 = 0.2998	x2 = 0.4005	x2 = 0.5044	x2 = 0.5994	x2 = 0.7011	x2 = 0.7885	x2 = 0.9087
293.15 K	0.907	0.955	1.054	1.145	1.248	1.351	1.472	1.584	1.75
298.15 K	0.854	0.901	0.996	1.081	1.175	1.269	1.379	1.48	1.629
303.15 K	0.795	0.839	0.927	1.006	1.093	1.178	1.276	1.367	1.502
308.15 K	0.747	0.787	0.867	0.937	1.014	1.09	1.179	1.263	1.39

CCCCCCCCCCO + c1ccccc1
viscosity [mPa·s], 100 kPa
Conditions	x2 = 0.0822	x2 = 0.1563	x2 = 0.2472	x2 = 0.3611	x2 = 0.4531	x2 = 0.5602	x2 = 0.6533	x2 = 0.7528	x2 = 0.8574	x2 = 0.9496
293.15 K	12.2	10.48	8.738	6.833	5.51	4.154	3.087	2.082	1.318	0.839
303.15 K	8.134	6.872	5.555	4.197	3.332	2.5	1.888	1.361	0.925	0.656
313.15 K	5.704	4.746	3.723	2.709	2.089	1.514	1.132	0.877	0.673	0.546
323.15 K	4.088	3.345	2.548	1.757	1.34	1.012	0.796	0.644	0.536	0.461

CCn1cc[n+](C)c1.F[B-](F)(F)F + OCCO
Conditions	viscosity [mPa·s]
313.15 K, 101 kPa, x1 = 0.7003	10.55
323.15 K, 100 kPa, x1 = 0.717	9.915
323.15 K, 101 kPa, x1 = 0.7997	9.913

CCOC(=O)OCC + COC(=O)OC
298.15 K, 101 kPa
Conditions	viscosity [mPa·s]
x1 = 0.0355	0.585
x1 = 0.0848	0.594
x1 = 0.1396	0.603
x1 = 0.2098	0.615
x1 = 0.2886	0.628
x1 = 0.3619	0.641
x1 = 0.4542	0.657
x1 = 0.5424	0.672
x1 = 0.6375	0.689
x1 = 0.7315	0.706
x1 = 0.838	0.726
x1 = 0.8896	0.736
x1 = 0.9462	0.747
